According to article PMC9017349, “Spiropyrimidinetriones: a Class of DNA Gyrase Inhibitors with Activity against Mycobacterium tuberculosis and without Cross-Resistance to Fluoroquinolones” (Antimicrobial Agents and Chemotherapy, 2022):
≈ marks a conversion by molar mass, not a printed value.

Assays:
[1] = system: M. tuberculosis DNA gyrase GyrA, A90V; format: cell-based, Mycobacterium tuberculosis
[2] = system: M. tuberculosis DNA gyrase GyrA, G88C; format: cell-based, Mycobacterium tuberculosis
[3] = system: M. tuberculosis ATCC 35826 (CS resistance); experiment: microbe, parasite or virus in culture; format: cell-based; details: Mycobacterium tuberculosis, ATCC35826
[4] = system: M. tuberculosis ATCC 3583 (INH resistance); experiment: microbe, parasite or virus in culture; format: cell-based; details: Mycobacterium tuberculosis, ATCC3583, read-out: MIC90, ATCC 3583 (INH resistance)
[5] = system: M. tuberculosis ATCC 35838 (Rif resistance); experiment: microbe, parasite or virus in culture; format: cell-based; details: Mycobacterium tuberculosis, ATCC35838
[6] = system: M. tuberculosis MmpL3, G253E; format: cell-based, Mycobacterium tuberculosis
[7] = system: M. tuberculosis MmpL3, G758A/G253E; format: cell-based, Mycobacterium tuberculosis
[8] = system: M. tuberculosis QcrB D317T; format: cell-based, Mycobacterium tuberculosis

SMILES	MIC90, DNA gyrase GyrA, A90V [1] [µM]	MIC90, DNA gyrase GyrA, G88C [2] [µM]	MIC90 [3] [µM]	MIC90 [4] [µM]	MIC90 [5] [µM]	MIC90, MmpL3, G253E [6] [µM]	MIC90, MmpL3, G758A/G253E [7] [µM]	MIC90, QcrB D317T [8] [µM]
COc1c(N2C[C@@H]3CCCN[C@@H]3C2)c(F)cc2c(=O)c(C(=O)O)cn(C3CC3)c12 [Moxifloxacin, moxifloxacin]	7.8 (≈ 3.13 µg/mL)	0.49 (≈ 0.197 µg/mL)						
C[C@H]1COc2c(N3CCN(C)CC3)c(F)cc3c(=O)c(C(=O)O)cn1c23 [Levofloxacin]	16 (≈ 5.78 µg/mL)	2.0 (≈ 0.723 µg/mL)						
NNC(=O)c1ccncc1 [Isoniazid, isoniazid]			3.4 (≈ 0.466 µg/mL)	> 62.5	7.8 (≈ 1.07 µg/mL)			
Cc1nnc(-c2noc3c(F)c4c(cc23)CC2(C(=O)NC(=O)NC2=O)[C@H]2[C@H](C)O[C@H](C)CN42)o1 [Compound 22]	0.98 (≈ 0.461 µg/mL)	0.98 (≈ 0.461 µg/mL)						
CC(C)=CCC/C(C)=C/CNCCNC1C2CC3CC(C2)CC1C3 (stereo not shown) [SQ109]						2.0 (≈ 0.661 µg/mL)	2.0 (≈ 0.661 µg/mL)	
CO[C@H]1/C=C/O[C@@]2(C)Oc3c(C)c(O)c4c(O)c(c(/C=N/N5CCN(C)CC5)c(O)c4c3C2=O)NC(=O)/C(C)=C\C=C\[C@H](C)[C@H](O)[C@@H](C)[C@@H](O)[C@@H](C)[C@H](OC(C)=O)[C@@H]1C [Rif, rifampicin]	0.0023 (≈ 0.00189 µg/mL)	0.0023 (≈ 0.00189 µg/mL)	0.001 (≈ 0.000823 µg/mL)	0.006 (≈ 0.00494 µg/mL)	> 0.1	0.001 (≈ 0.000823 µg/mL)	0.001 (≈ 0.000823 µg/mL)	0.0046 (≈ 0.00379 µg/mL)
